Measured values as given in BigSolDB 2.1.

Cc1cccc([N+](=O)[O-])c1N
solubility (mole fraction) (in 1,4-dioxane, 283.15 K): 0.18
solubility (mole fraction) (in 1,4-dioxane, 285.65 K): 0.19
solubility (mole fraction) (in 1,4-dioxane, 288.15 K): 0.201
solubility (mole fraction) (in 1,4-dioxane, 290.65 K): 0.211
solubility (mole fraction) (in 1,4-dioxane, 293.15 K): 0.223
solubility (mole fraction) (in 1,4-dioxane, 295.65 K): 0.236
solubility (mole fraction) (in 1,4-dioxane, 298.15 K): 0.249
solubility (mole fraction) (in 1,4-dioxane, 300.65 K): 0.262
solubility (mole fraction) (in 1,4-dioxane, 303.15 K): 0.277
solubility (mole fraction) (in 1,4-dioxane, 305.65 K): 0.291
solubility (mole fraction) (in 1,4-dioxane, 308.15 K): 0.306
solubility (mole fraction) (in 1,4-dioxane, 310.65 K): 0.323
solubility (mole fraction) (in 1,4-dioxane, 313.15 K): 0.339
solubility (mole fraction) (in acetone, 278.15 K): 0.113
solubility (mole fraction) (in acetone, 280.65 K): 0.122
solubility (mole fraction) (in acetone, 283.15 K): 0.132
solubility (mole fraction) (in acetone, 285.65 K): 0.142
solubility (mole fraction) (in acetone, 288.15 K): 0.153
solubility (mole fraction) (in acetone, 290.65 K): 0.165
solubility (mole fraction) (in acetone, 293.15 K): 0.177
solubility (mole fraction) (in acetone, 295.65 K): 0.19
solubility (mole fraction) (in acetone, 298.15 K): 0.203
solubility (mole fraction) (in acetone, 300.65 K): 0.217
solubility (mole fraction) (in acetone, 303.15 K): 0.233
solubility (mole fraction) (in acetone, 305.65 K): 0.249
solubility (mole fraction) (in acetone, 308.15 K): 0.265
solubility (mole fraction) (in acetone, 310.65 K): 0.283
solubility (mole fraction) (in acetone, 313.15 K): 0.301
solubility (mole fraction) (in acetonitrile, 278.15 K): 0.0418
solubility (mole fraction) (in acetonitrile, 280.65 K): 0.0466
solubility (mole fraction) (in acetonitrile, 283.15 K): 0.0529
solubility (mole fraction) (in acetonitrile, 285.65 K): 0.0589
solubility (mole fraction) (in acetonitrile, 288.15 K): 0.067
solubility (mole fraction) (in acetonitrile, 290.65 K): 0.0753
solubility (mole fraction) (in acetonitrile, 293.15 K): 0.0844
solubility (mole fraction) (in acetonitrile, 295.65 K): 0.0954
solubility (mole fraction) (in acetonitrile, 298.15 K): 0.106
solubility (mole fraction) (in acetonitrile, 300.65 K): 0.119
solubility (mole fraction) (in acetonitrile, 303.15 K): 0.133
solubility (mole fraction) (in acetonitrile, 305.65 K): 0.148
solubility (mole fraction) (in acetonitrile, 308.15 K): 0.165
solubility (mole fraction) (in acetonitrile, 310.65 K): 0.183
solubility (mole fraction) (in acetonitrile, 313.15 K): 0.203
solubility (mole fraction) (in cyclohexane, 283.15 K): 0.00103
solubility (mole fraction) (in cyclohexane, 285.65 K): 0.00118
solubility (mole fraction) (in cyclohexane, 288.15 K): 0.00136
solubility (mole fraction) (in cyclohexane, 290.65 K): 0.00158
solubility (mole fraction) (in cyclohexane, 293.15 K): 0.00181
solubility (mole fraction) (in cyclohexane, 295.65 K): 0.00211
solubility (mole fraction) (in cyclohexane, 298.15 K): 0.00242
solubility (mole fraction) (in cyclohexane, 300.65 K): 0.00279
solubility (mole fraction) (in cyclohexane, 303.15 K): 0.00318
solubility (mole fraction) (in cyclohexane, 305.65 K): 0.00369
solubility (mole fraction) (in cyclohexane, 308.15 K): 0.00424
solubility (mole fraction) (in cyclohexane, 310.65 K): 0.00489
solubility (mole fraction) (in cyclohexane, 313.15 K): 0.00562
solubility (mole fraction) (in ethanol, 278.15 K): 0.0102
solubility (mole fraction) (in ethanol, 280.65 K): 0.0112
solubility (mole fraction) (in ethanol, 283.15 K): 0.0125
solubility (mole fraction) (in ethanol, 285.65 K): 0.0139
solubility (mole fraction) (in ethanol, 288.15 K): 0.0154
solubility (mole fraction) (in ethanol, 290.65 K): 0.017
solubility (mole fraction) (in ethanol, 293.15 K): 0.019
solubility (mole fraction) (in ethanol, 295.65 K): 0.021
solubility (mole fraction) (in ethanol, 298.15 K): 0.0233
solubility (mole fraction) (in ethanol, 300.65 K): 0.0256
solubility (mole fraction) (in ethanol, 303.15 K): 0.0284
solubility (mole fraction) (in ethanol, 305.65 K): 0.0314
solubility (mole fraction) (in ethanol, 308.15 K): 0.0346
solubility (mole fraction) (in ethanol, 310.65 K): 0.0381
solubility (mole fraction) (in ethanol, 313.15 K): 0.042
solubility (mole fraction) (in ethyl acetate, 278.15 K): 0.0841
solubility (mole fraction) (in ethyl acetate, 280.65 K): 0.0924
solubility (mole fraction) (in ethyl acetate, 283.15 K): 0.101
solubility (mole fraction) (in ethyl acetate, 285.65 K): 0.11
solubility (mole fraction) (in ethyl acetate, 288.15 K): 0.121
solubility (mole fraction) (in ethyl acetate, 290.65 K): 0.131
solubility (mole fraction) (in ethyl acetate, 293.15 K): 0.142
solubility (mole fraction) (in ethyl acetate, 295.65 K): 0.155
solubility (mole fraction) (in ethyl acetate, 298.15 K): 0.168
solubility (mole fraction) (in ethyl acetate, 300.65 K): 0.182
solubility (mole fraction) (in ethyl acetate, 303.15 K): 0.196
solubility (mole fraction) (in ethyl acetate, 305.65 K): 0.212
solubility (mole fraction) (in ethyl acetate, 308.15 K): 0.228
solubility (mole fraction) (in ethyl acetate, 310.65 K): 0.246
solubility (mole fraction) (in ethyl acetate, 313.15 K): 0.265
solubility (mole fraction) (in isopropanol, 278.15 K): 0.0086
solubility (mole fraction) (in isopropanol, 280.65 K): 0.00945
solubility (mole fraction) (in isopropanol, 283.15 K): 0.0105
solubility (mole fraction) (in isopropanol, 285.65 K): 0.0119
solubility (mole fraction) (in isopropanol, 288.15 K): 0.0133
solubility (mole fraction) (in isopropanol, 290.65 K): 0.0147
solubility (mole fraction) (in isopropanol, 293.15 K): 0.0163
solubility (mole fraction) (in isopropanol, 295.65 K): 0.0183
solubility (mole fraction) (in isopropanol, 298.15 K): 0.0202
solubility (mole fraction) (in isopropanol, 300.65 K): 0.0225
solubility (mole fraction) (in isopropanol, 303.15 K): 0.0249
solubility (mole fraction) (in isopropanol, 305.65 K): 0.0277
solubility (mole fraction) (in isopropanol, 308.15 K): 0.0306
solubility (mole fraction) (in isopropanol, 310.65 K): 0.0339
solubility (mole fraction) (in isopropanol, 313.15 K): 0.0376
solubility (mole fraction) (in methanol, 278.15 K): 0.00739
solubility (mole fraction) (in methanol, 280.65 K): 0.00829
solubility (mole fraction) (in methanol, 283.15 K): 0.00916
solubility (mole fraction) (in methanol, 285.65 K): 0.0102
solubility (mole fraction) (in methanol, 288.15 K): 0.0113
solubility (mole fraction) (in methanol, 290.65 K): 0.0124
solubility (mole fraction) (in methanol, 293.15 K): 0.014
solubility (mole fraction) (in methanol, 295.65 K): 0.0155
solubility (mole fraction) (in methanol, 298.15 K): 0.0172
solubility (mole fraction) (in methanol, 300.65 K): 0.0192
solubility (mole fraction) (in methanol, 303.15 K): 0.0212
solubility (mole fraction) (in methanol, 305.65 K): 0.0234
solubility (mole fraction) (in methanol, 308.15 K): 0.0261
solubility (mole fraction) (in methanol, 310.65 K): 0.0288
solubility (mole fraction) (in methanol, 313.15 K): 0.032
solubility (mole fraction) (in n-propanol, 278.15 K): 0.0108
solubility (mole fraction) (in n-propanol, 280.65 K): 0.012
solubility (mole fraction) (in n-propanol, 283.15 K): 0.0133
solubility (mole fraction) (in n-propanol, 285.65 K): 0.0149
solubility (mole fraction) (in n-propanol, 288.15 K): 0.0165
solubility (mole fraction) (in n-propanol, 290.65 K): 0.0183
solubility (mole fraction) (in n-propanol, 293.15 K): 0.0203
solubility (mole fraction) (in n-propanol, 295.65 K): 0.0225
solubility (mole fraction) (in n-propanol, 298.15 K): 0.0248
solubility (mole fraction) (in n-propanol, 300.65 K): 0.0275
solubility (mole fraction) (in n-propanol, 303.15 K): 0.0305
solubility (mole fraction) (in n-propanol, 305.65 K): 0.0336
solubility (mole fraction) (in n-propanol, 308.15 K): 0.0371
solubility (mole fraction) (in n-propanol, 310.65 K): 0.041
solubility (mole fraction) (in n-propanol, 313.15 K): 0.0451
solubility (mole fraction) (in toluene, 278.15 K): 0.0237
solubility (mole fraction) (in toluene, 280.65 K): 0.0267
solubility (mole fraction) (in toluene, 283.15 K): 0.0301
solubility (mole fraction) (in toluene, 285.65 K): 0.0336
solubility (mole fraction) (in toluene, 288.15 K): 0.0375
solubility (mole fraction) (in toluene, 290.65 K): 0.0417
solubility (mole fraction) (in toluene, 293.15 K): 0.0469
solubility (mole fraction) (in toluene, 295.65 K): 0.0521
solubility (mole fraction) (in toluene, 298.15 K): 0.0581
solubility (mole fraction) (in toluene, 300.65 K): 0.0647
solubility (mole fraction) (in toluene, 303.15 K): 0.0719
solubility (mole fraction) (in toluene, 305.65 K): 0.0804
solubility (mole fraction) (in toluene, 308.15 K): 0.0893
solubility (mole fraction) (in toluene, 310.65 K): 0.0993
solubility (mole fraction) (in toluene, 313.15 K): 0.11
